# In article PMC5218480 (PLoS ONE, 2017):
# Test system: MV-4-11 cells
# Experiment: Gene expression microarray analysis (Affymetrix PrimeView) and GSEA
# Assay type: cell-based, human
# Design: RFU PODN (11730768_x_at) / Fold change /veh PODN (11730768_x_at) / RFU LINC00158 (11744669_a_at) / Fold change /veh LINC00158 (11744669_a_at) / RFU DUSP10 (11751237_a_at) / Fold change /veh DUSP10 (11751237_a_at) / RFU ID3 (11757404_x_at) / Fold change /veh ID3 (11757404_x_at) / RFU PLEKHG5 (11737974_s_at) / Fold change /veh PLEKHG5 (11737974_s_at) / RFU LRRC4B (11730491_at) / Fold change /veh LRRC4B (11730491_at) / RFU GIMAP4 (11747438_a_at) / Fold change /veh GIMAP4 (11747438_a_at) / RFU KRT8 (11758183_x_at) / Fold change /veh KRT8 (11758183_x_at) / RFU CNN1 (11734310_a_at) / Fold change /veh CNN1 (11734310_a_at) / RFU VPS37D (11726825_at) / Fold change /veh VPS37D (11726825_at) / RFU C10orf10 (11716522_x_at) / Fold change /veh C10orf10 (11716522_x_at) / RFU KIR2DL2 /// KIR2DL4 /// KIR2DL5A /// KIR2DL5B /// KIR2DS1 /// KIR2DS2 /// KIR2DS3 /// KIR2DS4 /// KIR3DL3 /// KIR3DL3 /// KIR3DS1 (11738374_at) / Fold change /veh KIR2DL2 /// KIR2DL4 /// KIR2DL5A /// KIR2DL5B /// KIR2DS1 /// KIR2DS2 /// KIR2DS3 /// KIR2DS4 /// KIR3DL3 /// KIR3DL3 /// KIR3DS1 (11738374_at) / RFU C1QL1 (11718748_at) / Fold change /veh C1QL1 (11718748_at) / RFU TMPRSS4 (11747572_a_at) / Fold change /veh TMPRSS4 (11747572_a_at) / RFU HAMP (11756126_x_at) / Fold change /veh HAMP (11756126_x_at) / RFU RNFT2 (11725882_a_at) / Fold change /veh RNFT2 (11725882_a_at) / RFU NR4A2 (11747474_a_at) / Fold change /veh NR4A2 (11747474_a_at) / RFU ABCC12 (11746883_a_at) / Fold change /veh ABCC12 (11746883_a_at) / RFU TMEM136 (11760407_x_at) / Fold change /veh TMEM136 (11760407_x_at) / RFU CLDN22 /// WWC2 (11732394_at) / Fold change /veh CLDN22 /// WWC2 (11732394_at) / RFU HLA-DPB1 (11760878_x_at) / Fold change /veh HLA-DPB1 (11760878_x_at) / RFU SPINT1 (11716480_a_at) / Fold change /veh SPINT1 (11716480_a_at) / RFU GAP43 (11754022_s_at) / Fold change /veh GAP43 (11754022_s_at) / RFU A4GNT (11735810_at) / Fold change /veh A4GNT (11735810_at) / RFU PRB3 (11715151_x_at) / Fold change /veh PRB3 (11715151_x_at) / RFU TUBB4B (11761932_at) / Fold change /veh TUBB4B (11761932_at) / RFU CAPN14 (11732068_a_at) / Fold change /veh CAPN14 (11732068_a_at) / RFU TMCC2 (11721928_a_at) / Fold change /veh TMCC2 (11721928_a_at) / RFU IRGQ (11745062_a_at) / Fold change /veh IRGQ (11745062_a_at) / RFU FAM174B (11720279_a_at) / Fold change /veh FAM174B (11720279_a_at) / RFU TMPRSS4 (11748680_a_at) / Fold change /veh TMPRSS4 (11748680_a_at) / RFU FAM212B (11763350_a_at) / Fold change /veh FAM212B (11763350_a_at) / RFU PLEKHG5 (11743358_a_at) / Fold change /veh PLEKHG5 (11743358_a_at) / RFU ZSCAN30 (11745921_a_at) / Fold change /veh ZSCAN30 (11745921_a_at) / RFU CMKLR1 (11741424_a_at) / Fold change /veh CMKLR1 (11741424_a_at) / RFU LOC101060620 /// MAPK8IP1 (11723275_at) / Fold change /veh LOC101060620 /// MAPK8IP1 (11723275_at) / RFU SPTSSB (11747773_x_at) / Fold change /veh SPTSSB (11747773_x_at) / RFU PRSS12 (11739890_at) / Fold change /veh PRSS12 (11739890_at) / RFU BIN1 (11741810_x_at) / Fold change /veh BIN1 (11741810_x_at) / RFU WNT11 (11732464_a_at) / Fold change /veh WNT11 (11732464_a_at) / RFU C10orf10 (11716521_a_at) / Fold change /veh C10orf10 (11716521_a_at) / RFU C5orf56 (11738089_at) / Fold change /veh C5orf56 (11738089_at) / RFU CYB561 (11721691_x_at) / Fold change /veh CYB561 (11721691_x_at) / RFU ANKRD19P (11752326_a_at) / Fold change /veh ANKRD19P (11752326_a_at) / RFU OR2T12 /// OR2T33 /// OR2T8 (11738714_s_at) / Fold change /veh OR2T12 /// OR2T33 /// OR2T8 (11738714_s_at) / RFU VCAN (11748164_a_at) / Fold change /veh VCAN (11748164_a_at) / RFU JSRP1 (11732532_at) / Fold change /veh JSRP1 (11732532_at) / RFU KRTAP10-11 (11738290_x_at) / Fold change /veh KRTAP10-11 (11738290_x_at) / RFU MYO3A (11730013_a_at) / Fold change /veh MYO3A (11730013_a_at) / RFU EBF3 (11725865_a_at) / Fold change /veh EBF3 (11725865_a_at) / RFU CAMK2N1 (11719241_x_at) / Fold change /veh CAMK2N1 (11719241_x_at) / RFU C5orf56 (11738088_a_at) / Fold change /veh C5orf56 (11738088_a_at) / RFU OLFML3 (11715873_a_at) / Fold change /veh OLFML3 (11715873_a_at) / RFU LOC100653217 /// NTM (11731650_a_at) / Fold change /veh LOC100653217 /// NTM (11731650_a_at) / RFU MAPK11 (11762145_a_at) / Fold change /veh MAPK11 (11762145_a_at) / RFU FIZ1 (11724087_x_at) / Fold change /veh FIZ1 (11724087_x_at) / RFU OASL (11726364_x_at) / Fold change /veh OASL (11726364_x_at) / RFU SOX15 (11748057_x_at) / Fold change /veh SOX15 (11748057_x_at) / RFU CD79A (11719716_a_at) / Fold change /veh CD79A (11719716_a_at) / RFU HIST1H1D (11736915_at) / Fold change /veh HIST1H1D (11736915_at) / RFU CASKIN2 (11723855_a_at) / Fold change /veh CASKIN2 (11723855_a_at) / RFU LOC730098 (11760151_x_at) / Fold change /veh LOC730098 (11760151_x_at) / RFU OR4N2 (11742367_at) / Fold change /veh OR4N2 (11742367_at) / RFU PRRT2 (11749266_a_at) / Fold change /veh PRRT2 (11749266_a_at) / RFU SNX32 (11753110_a_at) / Fold change /veh SNX32 (11753110_a_at) / RFU CDHR5 (11726645_a_at) / Fold change /veh CDHR5 (11726645_a_at) / RFU RCAN1 (11760418_a_at) / Fold change /veh RCAN1 (11760418_a_at) / RFU FAM167A (11723789_a_at) / Fold change /veh FAM167A (11723789_a_at) / RFU FAM26E (11764081_at) / Fold change /veh FAM26E (11764081_at) / RFU ISYNA1 (11749810_s_at) / Fold change /veh ISYNA1 (11749810_s_at) / RFU ACY1 (11761880_at) / Fold change /veh ACY1 (11761880_at) / RFU 11764098_at / Fold change /veh 11764098_at / RFU SAMD14 (11745864_x_at) / Fold change /veh SAMD14 (11745864_x_at) / RFU NPB (11741838_a_at) / Fold change /veh NPB (11741838_a_at) / RFU TMPRSS6 (11731388_a_at) / Fold change /veh TMPRSS6 (11731388_a_at) / RFU KRTAP10-2 (11738614_at) / Fold change /veh KRTAP10-2 (11738614_at) / RFU ARHGAP8 /// PRR5-ARHGAP8 (11727945_x_at) / Fold change /veh ARHGAP8 /// PRR5-ARHGAP8 (11727945_x_at) / RFU KRTAP5-7 /// NADSYN1 (11734609_at) / Fold change /veh KRTAP5-7 /// NADSYN1 (11734609_at) / RFU RASL12 (11751679_a_at) / Fold change /veh RASL12 (11751679_a_at) / RFU CDKN2B (11736163_a_at) / Fold change /veh CDKN2B (11736163_a_at) / RFU PRF1 (11729649_at) / Fold change /veh PRF1 (11729649_at) / RFU, ZNF638 /// ZNF638-IT1 / Fold change vs veh, ZNF638 /// ZNF638-IT1 / RFU, PANK3 / Fold change vs veh, PANK3 / RFU, SH3YL1 / Fold change vs veh, SH3YL1 / RFU, ZEB2 / Fold change vs veh, ZEB2 / RFU, NRIP1 / Fold change vs veh, NRIP1 / RFU, PTTG1IP / Fold change vs veh, PTTG1IP / RFU, CAPN2 / Fold change vs veh, CAPN2 / RFU, MED14 / Fold change vs veh, MED14 / RFU, SNORA58 / Fold change vs veh, SNORA58 / RFU, C1orf63 / Fold change vs veh, C1orf63 / RFU, LRRFIP1 / Fold change vs veh, LRRFIP1 / RFU, NDUFAF7 / Fold change vs veh, NDUFAF7 / RFU, SLC12A2 / Fold change vs veh, SLC12A2 / RFU, IBTK / Fold change vs veh, IBTK / RFU, ESF1 / Fold change vs veh, ESF1 / Fold change vs veh, TMEM50B / RFU, TAOK1 / Fold change vs veh, TAOK1 / RFU, ACBD3 / Fold change vs veh, ACBD3 / RFU, TMA16 / Fold change vs veh, TMA16 / RFU, RWDD3 / Fold change vs veh, RWDD3 / RFU, BCAT1 / Fold change vs veh, BCAT1 / RFU, EDEM3 / Fold change vs veh, EDEM3 / RFU, TMEM33 / Fold change vs veh, TMEM33 / RFU, WDR75 / Fold change vs veh, WDR75 / RFU, AHCTF1 / Fold change vs veh, AHCTF1 / RFU, TFRC / Fold change vs veh, TFRC / RFU, ZDHHC17 / Fold change vs veh, ZDHHC17 / RFU, NOM1 / Fold change vs veh, NOM1 / RFU, ARL8B / Fold change vs veh, ARL8B / RFU, ZBTB11 / Fold change vs veh, ZBTB11 / RFU, TAMM41 / Fold change vs veh, TAMM41 / RFU, KIAA1704 /// LOC100996395 / Fold change vs veh, KIAA1704 /// LOC100996395 / RFU, ING1 / Fold change vs veh, ING1 / RFU, TRMT61B / Fold change vs veh, TRMT61B / RFU, FUBP3 / Fold change vs veh, FUBP3 / RFU, TP53 / Fold change vs veh, TP53 / RFU, TNKS2 / Fold change vs veh, TNKS2 / RFU, ZFP14 / Fold change vs veh, ZFP14 / RFU, ACTR2 / Fold change vs veh, ACTR2 / RFU, PPP3R1 / Fold change vs veh, PPP3R1 / RFU, PIK3R1 / Fold change vs veh, PIK3R1 / RFU, HNRNPA1 / Fold change vs veh, HNRNPA1 / RFU, RNF170 / Fold change vs veh, RNF170 / RFU, ZNF28 / Fold change vs veh, ZNF28 / RFU, RNGTT / Fold change vs veh, RNGTT / RFU, OGT / Fold change vs veh, OGT / RFU, BRD1 / Fold change vs veh, BRD1 / RFU, MARS / Fold change vs veh, MARS / RFU, ZNF655 / Fold change vs veh, ZNF655 / RFU, FAHD1 / Fold change vs veh, FAHD1 / RFU, BDP1 / Fold change vs veh, BDP1 / RFU, LRRCC1 / Fold change vs veh, LRRCC1 / RFU, ARID1A / Fold change vs veh, ARID1A / RFU, ZNF146 / Fold change vs veh, ZNF146 / RFU, ZNF330 / Fold change vs veh, ZNF330 / RFU, GPN3 / Fold change vs veh, GPN3 / RFU, C9orf123 / Fold change vs veh, C9orf123 / RFU, N4BP2L2 / Fold change vs veh, N4BP2L2 / RFU, ARFIP1 / Fold change vs veh, ARFIP1 / RFU, FAM179B / Fold change vs veh, FAM179B / RFU, BCL10 / Fold change vs veh, BCL10 / RFU, UHRF1BP1L / Fold change vs veh, UHRF1BP1L / RFU, BET1 / Fold change vs veh, BET1 / RFU, CNOT2 / Fold change vs veh, CNOT2 / RFU, ZNF268 / Fold change vs veh, ZNF268 / Fold change vs veh, ZNF507 / RFU, DGCR2 / Fold change vs veh, DGCR2 / RFU, WDSUB1 / Fold change vs veh, WDSUB1 / Fold change vs veh, HSP90B1 /// MIR3652 / RFU, ADSS / Fold change vs veh, ADSS / RFU, GK / Fold change vs veh, GK / RFU, ZNF148 / Fold change vs veh, ZNF148 / RFU, TAF9 / Fold change vs veh, TAF9 / RFU, SLC1A5 / Fold change vs veh, SLC1A5 / RFU, SLMO2 / Fold change vs veh, SLMO2 / RFU, ABCC4 / Fold change vs veh, ABCC4 / RFU, LOC101060439 /// RAP1B / Fold change vs veh, LOC101060439 /// RAP1B / RFU, RFX7 / Fold change vs veh, RFX7 / RFU, GTPBP10 / Fold change vs veh, GTPBP10 / RFU, CNEP1R1 / Fold change vs veh, CNEP1R1 / RFU, BIVM-ERCC5 /// ERCC5 / Fold change vs veh, BIVM-ERCC5 /// ERCC5 / RFU, ILF3 / Fold change vs veh, ILF3 / RFU 11762660_at / Fold change /veh 11762660_at / RFU VCAN (11757783_s_at) / Fold change /veh VCAN (11757783_s_at) / RFU DDX43 (11728927_at) / Fold change /veh DDX43 (11728927_at) / RFU KRT8 (11758188_x_at) / Fold change /veh KRT8 (11758188_x_at) / RFU NKD1 (11759106_at) / Fold change /veh NKD1 (11759106_at) / RFU SRD5A1 (11742802_a_at) / Fold change /veh SRD5A1 (11742802_a_at) / RFU TPSAB1 /// TPSB2 (11721975_s_at) / Fold change /veh TPSAB1 /// TPSB2 (11721975_s_at) / RFU GSTM3 (11746129_a_at) / Fold change /veh GSTM3 (11746129_a_at) / RFU IL23R (11737362_x_at) / Fold change /veh IL23R (11737362_x_at) / RFU TMEM51 (11727254_a_at) / Fold change /veh TMEM51 (11727254_a_at) / RFU PIWIL2 (11732686_x_at) / Fold change /veh PIWIL2 (11732686_x_at) / RFU ORM1 (11744905_x_at) / Fold change /veh ORM1 (11744905_x_at) / RFU CCDC152 (11743942_at) / Fold change /veh CCDC152 (11743942_at) / RFU ECM1 (11717891_a_at) / Fold change /veh ECM1 (11717891_a_at) / RFU IL23R (11748794_a_at) / Fold change /veh IL23R (11748794_a_at) / RFU TNFAIP8L3 (11732012_x_at) / Fold change /veh TNFAIP8L3 (11732012_x_at) / RFU MBOAT4 (11741988_at) / Fold change /veh MBOAT4 (11741988_at) / RFU 11764193_at / Fold change /veh 11764193_at / RFU TMEM53 (11763286_at) / Fold change /veh TMEM53 (11763286_at) / RFU MAGEB2 (11727129_at) / Fold change /veh MAGEB2 (11727129_at) / RFU TMEM200A (11744735_a_at) / Fold change /veh TMEM200A (11744735_a_at) / RFU CCDC152 (11751479_a_at) / Fold change /veh CCDC152 (11751479_a_at) / RFU FAM211A (11726209_a_at) / Fold change /veh FAM211A (11726209_a_at) / RFU RGS16 (11746705_a_at) / Fold change /veh RGS16 (11746705_a_at) / RFU VCAN (11755009_s_at) / Fold change /veh VCAN (11755009_s_at) / RFU RHOB (11743442_s_at) / Fold change /veh RHOB (11743442_s_at) / RFU RGS16 (11720943_a_at) / Fold change /veh RGS16 (11720943_a_at) / RFU RGS16 (11720944_at) / Fold change /veh RGS16 (11720944_at) / RFU, VPS4B / Fold change vs veh, VPS4B / RFU, CREB1 / Fold change vs veh, CREB1 / RFU, DNAJC13 / Fold change vs veh, DNAJC13 / RFU, GNAQ / Fold change vs veh, GNAQ / RFU, CDK5R1 / Fold change vs veh, CDK5R1 / RFU, ZRANB3 / Fold change vs veh, ZRANB3 / RFU, CUL4A / Fold change vs veh, CUL4A / RFU, CCNY / Fold change vs veh, CCNY / RFU, UFL1 / Fold change vs veh, UFL1 / RFU, COG3 / Fold change vs veh, COG3 / RFU, DIAPH2 / Fold change vs veh, DIAPH2 / RFU, SKA2 / Fold change vs veh, SKA2 / RFU, AFF3 / Fold change vs veh, AFF3 / RFU, LMF1 / Fold change vs veh, LMF1 / RFU, IPO11 / Fold change vs veh, IPO11 / RFU, DFFB / Fold change vs veh, DFFB / RFU, FOXP1 / Fold change vs veh, FOXP1 / RFU, CARD8 / Fold change vs veh, CARD8 / RFU, STRN3 / Fold change vs veh, STRN3 / RFU, ADK / Fold change vs veh, ADK / RFU, RASSF2 / Fold change vs veh, RASSF2 / RFU, WIPF1 / Fold change vs veh, WIPF1 / RFU, LARP1B / Fold change vs veh, LARP1B / RFU, RASA1 / Fold change vs veh, RASA1 / RFU, RB1 / Fold change vs veh, RB1 / RFU, PPFIA1 / Fold change vs veh, PPFIA1 / RFU, MAT2A / Fold change vs veh, MAT2A / RFU, CCT5 / Fold change vs veh, CCT5 / RFU, WDR92 / Fold change vs veh, WDR92 / RFU, CUX1 / Fold change vs veh, CUX1 / RFU, TTC7A / Fold change vs veh, TTC7A / RFU, TMEM135 / Fold change vs veh, TMEM135 / RFU, DEPTOR / Fold change vs veh, DEPTOR / RFU, CPM / Fold change vs veh, CPM / RFU, DNAJB6 / Fold change vs veh, DNAJB6 / RFU, CACNA2D3 / Fold change vs veh, CACNA2D3 / RFU, DTX4 / Fold change vs veh, DTX4 / RFU, TFCP2 / Fold change vs veh, TFCP2 / RFU, GMCL1 /// GMCL1P1 / Fold change vs veh, GMCL1 /// GMCL1P1 / RFU, AEBP2 / Fold change vs veh, AEBP2 / RFU, SNHG1 /// SNORD22 /// SNORD25 /// SNORD26 /// SNORD27 /// SNORD28 /// SNORD29 /// SNORD31 / Fold change vs veh, SNHG1 /// SNORD22 /// SNORD25 /// SNORD26 /// SNORD27 /// SNORD28 /// SNORD29 /// SNORD31 / Fold change (Aza/veh), C12orf56 (ProbeSet 11735607_a_at) / Fold change (ACY-1035/veh), C12orf56 (ProbeSet 11735607_a_at) / Fold change (Aza/veh), FGFR1OP (ProbeSet 11751329_s_at) / Fold change (ACY-1035/veh), FGFR1OP (ProbeSet 11751329_s_at) / Fold change (Aza/veh), VPS36 (ProbeSet 11739960_a_at) / Fold change (ACY-1035/veh), VPS36 (ProbeSet 11739960_a_at) / RFU SYPL1 (11715823_x_at) / Fold change /veh SYPL1 (11715823_x_at) / RFU IGFBP7 (11715501_s_at) / Fold change /veh IGFBP7 (11715501_s_at) / RFU REEP3 (11722064_at) / Fold change /veh REEP3 (11722064_at) / RFU IGLL1 (11728026_x_at) / Fold change /veh IGLL1 (11728026_x_at): dose or concentration left out as unconfirmed
# Conditions: ProbeSet 11733108_at; LIST D
structure (smiles),measurement,value
Nc1ncn([C@@H]2O[C@H](CO)[C@@H](O)[C@H]2O)c(=O)n1 [azacitidine],"RFU, GNAQ",233.19 RFU
